PMC11816618, “Pharmacokinetic profile and in vivo anticancer efficacy of anagrelide administered subcutaneously in rodents” (Drug Delivery, 2025)

Legend:
[1] = system: UZLX-GIST2B; parameters: method as in Pulkka et al., 2019; conditions: 5 mg/kg PO BID, in 11 days; ref Pulkka et al., 2019; cited from earlier work
[2] = Tolerability (body weight, well-being) during the UZLX-GIST2B efficacy experiment
Experimental: Before and during the treatments, tumor volumes (mm^3) were determined by three dimensional measurements (x × y × z) with a digital caliper. The treatments started after tumors reached an average volume between 150 and 300 mm^3, followed by randomizing the mice to the four treatment groups with an even tumor volume distribution per group. PO-treated mice received 2.5 mg/kg of ANA BID. Mice in the control group were injected with 50 µL of miglyol vehicle, and mice receiving SC ANA were injected Q4D with 35 mg/kg or 70 mg/kg into the loose skin between the shoulder blades (days 1, 5, and 9). During the experiment, tumor volumes were measured on days 1, 4, 8, and 11. In addition, animal well-being was visually monitored, and body weights were measured every day. Absolute tumor volume changes between the first and last days were considered as one of the measurements of treatment efficacy. […] Tumors were collected, weighed, and snap-frozen in liquid nitrogen, and livers of the mice were evaluated by visual inspection.
Statistical analyses were performed using IBM SPSS Statistics 28.0.0.0 (Chicago, IL). p Values below .05 were considered statistically significant. Statistical significance of body weights, tumor volumes, and tumor weights between the treatment groups was analyzed using the independent samples Kruskal–Wallis test and Dunn’s pairwise tests adjusted with Bonferroni’s correction. […]

[3] = Clinical observation during the rat PK experiments; format: in vivo, Sprague-Dawley rats; conditions: single dose IV 0.5, PO 2.5, SC 1.0, 7.0 or 35.0 mg/kg, SD rats
Experimental: To compare PK values of the three different administration routes, 11 male Sprague-Dawley® (SD) rats (6–8 weeks old) were administered a single dose of ANA either via IV injection (n = 3, 0.5 mg/kg), PO (n = 3, 2.5 mg/kg), or SC injection (n = 5, 1.0 mg/kg). To monitor the sustained release of SC ANA in the long term, 10 male SD rats were treated with a single dose of either 7.0 mg/kg (n = 5) or 35.0 mg/kg (n = 5). The rats were purchased from SPF Biotechnology Co. Ltd. (Beijing, China). Animals were acclimated to the test facility for at least three days, during which their general health was checked by veterinary staff or other authorized personnel. Animals were kept in polycarbonate cages containing absorbent corncob bedding, with a maintained temperature range of +20–25 °C and a 12-h light/dark cycle. Animals had access to food and drinking water ad libitum during acclimation and the experiment. At the end of the study, the rats were euthanized by exposure to an increasing concentration of CO2.

Structure (SMILES): O=C1CN2Cc3c(ccc(Cl)c3Cl)N=C2N1 [Anagrelide, imidazo‐[2,1‐b] quinazolin‐2[3H]‐one, 6,7‐dichloro‐1,5‐dihydro, monohydro‐chloride]
- tumor response in the same PDX model [1]: significant tumor regression
- relative body weight ([2]; 2.5 mg/kg PO BID, 11 days, still in the acceptable range, p = .016): significantly lower relative body weights
- finding at the injection site ([2]; 35 or 70 mg/kg SC Q4D in miglyol): drug precipitates near the injection site
- clinical symptoms [3]: No abnormal clinical symptoms were observed
